These results are taken from patent US12606552B2, “Bifunctional compound, preparation method therefor, and use thereof” (SUZHOU KINTOR PHARMACEUTICALS, INC., priority 2020, dated 2026).

The assay has as its target T1, AR (Homo sapiens, UniProt P10275, T878A).
T1 sequence (P10275 1-920 T878A): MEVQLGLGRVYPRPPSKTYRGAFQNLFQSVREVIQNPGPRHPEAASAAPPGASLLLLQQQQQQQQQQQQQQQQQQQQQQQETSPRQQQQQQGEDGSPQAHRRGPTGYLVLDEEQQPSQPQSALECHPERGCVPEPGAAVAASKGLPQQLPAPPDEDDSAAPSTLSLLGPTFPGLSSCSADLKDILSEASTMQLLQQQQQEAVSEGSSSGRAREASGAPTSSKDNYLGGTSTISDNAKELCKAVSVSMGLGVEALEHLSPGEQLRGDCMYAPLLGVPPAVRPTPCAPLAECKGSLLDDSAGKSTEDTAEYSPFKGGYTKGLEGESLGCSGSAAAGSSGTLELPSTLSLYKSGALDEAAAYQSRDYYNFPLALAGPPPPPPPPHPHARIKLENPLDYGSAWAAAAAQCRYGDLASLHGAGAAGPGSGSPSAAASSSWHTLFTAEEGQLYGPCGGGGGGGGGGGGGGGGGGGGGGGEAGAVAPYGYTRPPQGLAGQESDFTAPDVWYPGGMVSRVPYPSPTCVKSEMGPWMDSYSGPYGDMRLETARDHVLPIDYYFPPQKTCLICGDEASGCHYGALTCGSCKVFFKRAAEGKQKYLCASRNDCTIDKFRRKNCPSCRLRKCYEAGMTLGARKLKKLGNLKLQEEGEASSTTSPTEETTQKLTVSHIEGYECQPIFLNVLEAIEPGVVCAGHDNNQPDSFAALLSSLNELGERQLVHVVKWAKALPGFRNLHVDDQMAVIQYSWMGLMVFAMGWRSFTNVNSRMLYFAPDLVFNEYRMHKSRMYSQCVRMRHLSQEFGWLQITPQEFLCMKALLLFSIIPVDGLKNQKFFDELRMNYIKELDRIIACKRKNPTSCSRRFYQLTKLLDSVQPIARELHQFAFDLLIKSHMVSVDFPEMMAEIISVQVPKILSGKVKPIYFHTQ
Kind of assay: Effects of compounds on AR expression in LNCaP cells (ELISA, DC50). Set-up: Measurement of the Effects of Drugs on the Expression of AR in Cells by ELISA Method; endogenous in cells; host or cells: LNCaP. The note with it: 24 hours of drug treatment, AR by ELISA. The format is cell-based. The procedure:
Activity Assay Example 1: Effects of Compounds on AR Expression in LNCaP Cells
1. Cell Line and Cell Culture
Human prostate cancer cells LNCaP (Shanghai Chinese Academy of Sciences Cell Bank). LNCaP was cultured in 1640 medium containing 10% fetal bovine serum. The cells grow in clusters, with weak adhesion to the bottom of the culture flask, slow proliferation, with a multiplication time of 72 h. The cells are closely adhered to each other and need to be digested with 0.05% trypsin containing 0.025% EDTA. The cells were passaged every 3 days. The cells were cultured at 37° C. and 5% CO2 in a humidified incubator
2. Cell plating: The supernatant was discarded, and the Lncap cells in the logarithmic growth phase were taken, washed with PBS once, and added with appropriate 0.05% trypsin digestion solution to be fully digested into single cell suspension, and centrifuged, resuspended and counted to make the number of cells about 15,000 per well, then inoculated in a 96-well plate, placed at 37° C., 5% CO2 and cultured overnight for 24 h.
3. Preparation and Addition of Compound Solutions
About 2 mg of each compound was weighed and dissolved in DMSO to make the stock solution with a concentration of 10 mmol/L. Dilution process (final concentration dilution: 2, 0.667, 0.222, 0.074, 0.0245, 0.008, 0.003, 0.001, 0.0003, 0.0001 μmol/L): 10 centrifuge tubes with a volume of 1.5 mL were taken and numbered 1, 2, 3, 4, 5, 6, 7, 8, 9, and 10, 80 μL DMSO was added to tube No. 1, and 60 μL DMSO was added to tubes No. 2 to No. 10, 20 μL of the stock solution was pipetted to tube No. 1 and mixed well; 30 μL was pipetted from tube No. 1 into tube No. 2 and mixed well. 30 μL was pipetted from tube No. 2 into tube No. 3 and mixed well, and so forth, to obtain samples No. 4-10, and to obtain working solutions of compounds of different concentrations respectively. 2 μL was pipetted from the above-mentioned tubes No. 1-10 into each corresponding sterile deep-well plates, added with 198 μL of culture medium, and mixed well. 11 ul was added to each well of the 96-well cell plate cultured overnight to obtain the corresponding desired concentrations (2, 0.667, 0.222, 0.074, 0.0245, 0.008, 0.003, 0.001, 0.0003, 0.0001 μmol/L).
4. Measurement of the Effects of Drugs on the Expression of AR in Cells by ELISA Method
After 24 hours of drug treatment, the supernatant was removed, and 200 μL of PBS was added to wash cells, and then the supernatant was removed, and 100 μL of cell lysate was added to lyse cells on ice for 20 min, then the cell lysate was centrifuged at 4000 rpm for 20 min at 4° C. and the supernatant was taken for later use. The measurement steps of the supernatant were according to the ELISA kit instructions:
4.1 The slats required for the test were taken out from the sealed bag that has been equilibrated to room temperature. Please put the unused slats and desiccant back into the aluminum foil bag and compress the self-sealing strip, seal the bag, and store at 4° C.
4.2 Standards and sample diluents were added to blank wells, and different concentrations of standards (10 ul/well) and sample diluents (90 ul/well) were added to the remaining corresponding wells, and the reaction wells were sealed with sealing tape, and refrigerated at 4° C. overnight.
4.3 Primary antibody was diluted with dilution buffer to the corresponding concentration and added to each well in 100 ul/well. The reaction wells were sealed with sealing tape and incubated at 37° C. for 60 min.
4.4 Secondary antibody was diluted with dilution buffer to the corresponding concentration and added to each well in 100 ul/well. The reaction wells were sealed with sealing tape and incubated at 37° C. for 30 min.
4.5 The reaction wells were added with 100 ul/well of substrate (TMB) and incubated at room temperature for 30 min.
4.6 The reaction wells were added with 100 ul/well of stop solution, mixed well and then the OD450 value was measured with a microplate reader. […]
Regarding `Cc1cc(C(C(=O)N2C[C@H](O)C[C@H]2C(=O)N[C@@H](CC(=O)N2CCC(Oc3ccc(-c4ncc(N5C(=S)N(c6ccc(C#N)c(C(F)(F)F)c6F)C(=O)C5(C)C)cc4F)cc3F)CC2)c2ccc(-c3scnc3C)cc2)C(C)C)on1` (stereo partly drawn) [Compound A178], the DC50 was found to be 90.5 nM. The result for `Cc1ncsc1-c1ccc(CNC(=O)[C@@H]2C[C@@H](O)CN2C(=O)[C@@H](NC(=O)CN2CCN(CCc3ccc(-c4ccc(N5C(=S)N(c6ccc(C#N)c(C(F)(F)F)c6F)C(=O)C5(C)C)cn4)cc3)CC2)C(C)(C)C)cc1` [Compound A69] reads 39.4 nM; that for `Cc1ncsc1-c1ccc([C@H](C)NC(=O)[C@@H]2C[C@@H](O)CN2C(=O)[C@@H](NC(=O)COCC(F)C(F)COc2c(F)cc(-c3ncc(N4C(=S)N(c5ccc(C#N)c(C(F)(F)F)c5F)C(=O)C4(C)C)cc3F)cc2F)C(C)(C)C)cc1` (stereo partly drawn) [Compound A144], 635 nM. The same measure for `Cc1ncsc1-c1ccc(CNC(=O)[C@@H]2C[C@@H](O)CN2C(=O)[C@@H](NC(=O)CCn2cc(COc3ccc(-c4ccc(N5C(=S)N(c6ccc(C#N)c(C(F)(F)F)c6F)C(=O)C5(C)C)cn4)cc3)nn2)C(C)(C)C)cc1` [Compound A80]: 116 nM; for `CC1(C)C(=O)N(c2ccc(C#N)c(C(F)(F)F)c2F)C(=S)N1c1cnc(-c2cc(F)c(OC3CCN(C(=O)COc4cccc5c4C(=O)N(C4CCC(=O)NC4=O)C5=O)CC3)c(F)c2)c(F)c1` (stereo not drawn) [Compound A191]: 162 nM. The same measure for `CC1(C)C(=O)N(c2ccc(C#N)c(C(F)(F)F)c2F)C(=S)N1c1ccc(-c2ccc(OCCNC(=O)COc3cccc4c3C(=O)N(C3CCC(=O)NC3=O)C4=O)cc2)nc1` (stereo not drawn) [Compound A23]: 721 nM. With `Cc1ncsc1-c1ccc(CNC(=O)[C@@H]2C[C@@H](O)CN2C(=O)[C@@H](NC(=O)CCc2ccc(C(=O)Nc3ccc(-c4ccc(N5C(=S)N(c6ccc(C#N)c(C(F)(F)F)c6F)C(=O)C5(C)C)cn4)cc3)cc2)C(C)(C)C)cc1` [Compound A252], the DC50 is 95.9 nM. The same measure for `CNC(=O)c1ccc(-c2c[nH]c([C@@H]3C[C@@H](O)CN3C(=O)[C@@H](NC(=O)COCCCCOc3ccc(-c4ncc(N5C(=S)N(c6ccc(C#N)c(C(F)(F)F)c6F)C(=O)C5(C)C)cc4F)c(C(F)(F)F)c3)C(C)(C)C)n2)cc1` [Compound A235]: 125 nM. `Cc1ncsc1-c1ccc(CNC(=O)[C@@H]2C[C@@H](O)CN2C(=O)[C@@H](OC(=O)COCCCCOc2ccc(-c3ncc(N4C(=S)N(c5ccc(C#N)c(C(F)(F)F)c5F)C(=O)C4(C)C)cc3F)cc2F)C(C)(C)C)cc1` [Compound A107]: the DC50 is 107 nM. The same measure for `COc1c(C#N)ccc(N2C(=O)C(C)(C)N(c3cnc(-c4ccc(OCCCCOCC(=O)N[C@H](C(=O)N5C[C@H](O)C[C@H]5C(=O)NCc5ccc(-c6scnc6C)cc5)C(C)(C)C)c(F)c4)c(F)c3)C2=S)c1F` [Compound A215]: 83.1 nM; for `Cc1ncsc1-c1ccc(CNC(=O)[C@@H]2C[C@@H](O)CN2C(=O)[C@@H](NC(=O)COCCCCN2CCN(c3ccc(N4C(=S)N(c5ccc(C#N)c(C(F)(F)F)c5F)C(=O)C4(C)C)cn3)CC2)C(C)(C)C)cc1` [Compound A106]: 402 nM; for `Cc1ncsc1-c1ccc(CNC(=O)[C@@H]2C[C@@H](O)CN2C(=O)[C@@H](NC(=O)c2ccc(C(F)(F)C(=O)Nc3ccc(-c4ccc(N5C(=S)N(c6ccc(C#N)c(C(F)(F)F)c6F)C(=O)C5(C)C)cn4)cc3)cc2)C(C)(C)C)cc1` [Compound A241]: 807 nM. The result for `Cc1ncoc1-c1c[nH]c([C@@H]2C[C@@H](O)CN2C(=O)[C@@H](NC(=O)COCCCCOc2ccc(-c3ccc(N4C(=S)N(c5ccc(C#N)c(C(F)(F)F)c5F)C(=O)C4(C)C)cn3)cc2)C(C)(C)C)n1` [Compound A225] reads 92.1 nM; that for `Cc1cc(C(C(=O)N2C[C@H](O)C[C@H]2C(=O)N[C@@H](CC(=O)NCCN2CCC(Oc3ccc(-c4ncc(N5C(=S)N(c6ccc(C#N)c(C(F)(F)F)c6F)C(=O)C5(C)C)cc4F)cc3F)CC2)c2ccc(-c3scnc3C)cc2)C(C)C)on1` (stereo partly drawn) [Compound A186], 87 nM. The same measure for `Cc1ncsc1-c1ccc(CNC(=O)[C@@H]2C[C@@H](O)CN2C(=O)[C@@H](NC(=O)[C@H]2CC[C@H](CNC(=O)CCCc3ccc(N4C(=S)N(c5ccc(C#N)c(C(F)(F)F)c5F)C(=O)C4(C)C)cn3)CC2)C(C)(C)C)cc1` [Compound A140]: 1500 nM; for `COc1c(C#N)ccc(N2C(=O)C(C)(C)N(c3cnc(-c4ccc(OCCCCOCC(=O)N[C@H](C(=O)N5C[C@H](O)C[C@H]5C(=O)NCc5ccc(-c6scnc6C)cc5)C(C)(C)C)cc4C(F)(F)F)c(F)c3)C2=S)c1F` [Compound A196]: 39 nM; for `CC1(C)C(=O)N(c2ccc(C#N)c(C(F)(F)F)c2F)C(=S)N1c1cnc(-c2ccc(OCCNC(=O)COc3ccc4c(c3)C(=O)N(C3CCC(=O)NC3=O)C4=O)c(F)c2)c(F)c1` (stereo not drawn) [Compound A40]: 29.8 nM. As for `Cc1ncsc1-c1ccc(CNC(=O)[C@@H]2C[C@@H](O)CN2C(=O)[C@@H](NC(=O)COCCC(F)COc2ccc(-c3ncc(N4C(=S)N(c5ccc(C#N)c(C(F)(F)F)c5F)C(=O)C4(C)C)cc3F)cc2F)C(C)(C)C)cc1` (stereo partly drawn) [Compound A147], the DC50 was found to be 84.9 nM.

Compound `CC(C)(C)[C@H](NC(=O)COCCCCOc1ccc(-c2ncc(N3C(=S)N(c4ccc(C#N)c(C(F)(F)F)c4F)C(=O)C3(C)C)cc2F)c(C(F)(F)F)c1)C(=O)N1C[C@H](O)C[C@H]1c1nc(-c2cncnc2)c[nH]1` [Compound A227] had a DC50 of 24.8 nM.

Consider `Cc1ncsc1-c1ccc(CNC(=O)[C@@H]2C[C@@H](O)CN2C(=O)[C@@H](NC(=O)COCCOc2c(F)cc(-c3ncc(N4C(=S)N(c5ccc(C#N)c(C(F)(F)F)c5F)C(=O)C4(C)C)cc3F)cc2F)C(C)(C)C)cc1` [Compound A87], for which the DC50 worked out at 54.6 nM. The same measure for `Cc1ncsc1-c1ccc(CNC(=O)[C@@H]2C[C@@H](O)CN2C(=O)[C@@H](NC(=O)COCC(F)C(F)COc2ccc(-c3ncc(N4C(=S)N(c5ccc(C#N)c(C(F)(F)F)c5F)C(=O)C4(C)C)cc3F)cc2F)C(C)(C)C)cc1` (stereo partly drawn) [Compound A150]: 90.6 nM.
